Experimental data reported in patent publication US7468393B2, “Diarylsulfones as 5-HT2A antagonists” (Merck Sharp & Dohme Ltd., priority 2004, dated 2008).

- melting point: 75 °C
SMILES: C[C@H](O)c1ccccc1S(=O)(=O)c1ccc(/C=C/c2ccc(F)cc2)cc1 [Example 135, (1S)-1-[2-({4-[(E)-2-(4-fluorophenyl)vinyl]phenyl}sulfonyl)phenyl]ethanol]
